What was measured:
[1] = test system: human umbilical vein endothelial cells; experiment: Tube formation assay (angiogenesis); assay type: cell-based
Procedure: 13. Tube Formation Assay (Malinda et al., 1999)
1μ-Slide Angiogenesis ibiTreat chambers were coated with 10 μl Matrigel™ Mixtrix and placed in an incubator at 37° C. for 1 hour. 40 μl of a 3×10^5 cells/ml cell suspension was added to each chamber and left still for 20 minutes to let the cells attach to the chamber. After that, the medium in each chamber was removed. Fresh mediums with different concentrations of a test drug were added to the chambers, respectively and placed in an incubator at 37° C. After 18 hours, the angiogenesis appearance in each chamber was observed and photographed for recording.

[2] = test system: matrix metalloproteinase-2; experiment: Western blot analysis, MMP-2 protein expression in HT 1080 cells; assay type: cell-based, Human
Procedure: HT 1080 cells with appropriate cell numbers were cultured in 60 mm culturing plates for 12 hours, respectively. After the cells were attached onto the bottom of the plate and formed a monolayer, the medium in the plate was removed. Fresh serum-free mediums with different concentrations of a test drug were added to the plates, respectively, and 100 nM PMA was added to each plate to induce the cells to express great quantities of matrix metalloproteinase-2 and matrix metalloproteinase-9, and the plates were placed in a temperature of 37° C. for 24 hours. A quantitatively cultured supernatant in each plate was centrifuged or protein was extracted from cells in each plate to be quantitated, and then an SDS-sample buffer containing 2-ME was added therein to form a mixture. The mixture was injected into a 10% SDS-polyacrylamide gel […] and then electrophoresed. After electrophoresis was completed, the proteins in the gel were transferred to a PVDF membrane. The PVDF membrane was equilibrated with gelatin-NET at room temperature for 30 minutes. […]

[3] = molecular target: T1, matrix metalloproteinase-9 (Homo sapiens, UniProt P14780); experiment: Extracellular inhibition test on enzyme activity of secreted MMP-9 in cultured medium; assay type: biochemical; conditions: cultured medium of PMA induced HT 1080, different concentrations, 24 hours
T1 construct: matrix metalloproteinase-2 and matrix metalloproteinase-9 were secreted from the PMA induced HT 1080; endogenous in cells; host or cells: HT 1080 cells induced with 100 nM PMA
T1 sequence (P14780 94-707): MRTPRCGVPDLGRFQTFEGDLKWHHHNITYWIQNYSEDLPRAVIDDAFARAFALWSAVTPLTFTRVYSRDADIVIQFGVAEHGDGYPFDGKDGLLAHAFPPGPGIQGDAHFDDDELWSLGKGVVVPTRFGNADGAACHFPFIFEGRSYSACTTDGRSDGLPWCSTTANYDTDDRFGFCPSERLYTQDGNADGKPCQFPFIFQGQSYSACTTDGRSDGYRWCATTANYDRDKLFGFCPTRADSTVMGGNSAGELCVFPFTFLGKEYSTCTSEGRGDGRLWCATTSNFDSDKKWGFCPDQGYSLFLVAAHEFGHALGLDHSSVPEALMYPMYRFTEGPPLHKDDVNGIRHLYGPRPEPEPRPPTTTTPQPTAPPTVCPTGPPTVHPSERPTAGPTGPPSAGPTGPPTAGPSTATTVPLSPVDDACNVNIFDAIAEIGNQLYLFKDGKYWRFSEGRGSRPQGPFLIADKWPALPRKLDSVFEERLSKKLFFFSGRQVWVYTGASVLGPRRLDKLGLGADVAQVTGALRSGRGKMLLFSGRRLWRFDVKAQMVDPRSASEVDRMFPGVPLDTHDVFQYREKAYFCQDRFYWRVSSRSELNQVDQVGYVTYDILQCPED
Procedure: HT 1080 cells with appropriate cell numbers were cultured in 60 mm culturing plates for 12 hours, respectively. After the cells were attached onto the bottom of the plate and formed a monolayer, the medium in the plate was removed. Fresh serum free mediums with different concentrations of a test sample were added to the plates, respectively, and 100 nM PMA was added to each plate to induce the cells to express great quantities of matrix metalloproteinase-2 and matrix metalloproteinase-9, and the plates were placed in a temperature of 37° C. for 24 hours. After centrifugation, each cultured supernatant were saved and mixed with SDS-sample buffer under the same protein contents which were then injected into a 10% SDS-polyacrylamide gel (containing 1 mg/ml gelatin) and then electrophoresed. After the electrophoresis was completed, the gel was taken out and washed with 20 mM Tris-HCl containing 25% isopropanol three times; 10 minutes per time. […]
HT 1080 cells were induced with PMA, and the cultured medium for culturing the HT 1080 cells therefrom was taken out and treated with the different concentrations of L-Glutamic acid γ-hydroxamate (DH) for 24 hours, respectively. After that the enzyme activities of the matrix metalloproteinase-2 and matrix metalloproteinase-9 in the medium were analyzed. […]

NC(CCC(=O)NO)C(=O)O [DH, L-Glutamic acid γ-hydroxamate]
inhibition rate to angiogenesis ([1]; about 0.1-1.5 mM, stated as embodiment): 10-90% | angiogenesis compared with the control group ([1]; increasing concentrations): significantly inhibited | protein expression amount of matrix metalloproteinase-2 secreted out of and left in HT 1080 cells ([2]; 0.4, 0.8, 1.2, and 1.6, 24 hours, Western blotting): all decreased | inhibition rate to the protein expression amount of metalloproteinase-2 of a cancer cell ([2]; about 0.1-2 mM, stated as embodiment, 'and/or' MMP-9): 40-90% | direct inhibition of enzyme activity of secreted matrix metalloproteinase-9 [3]: no inhibition
